Test system: Mus musculus
Conditions: short-term
[1] = duration: 4 days, dermal, F, BALB/c, body weight + thymus: thymus: absolute weight
[2] = duration: 10 days, oral, diet, M, C57BL/6, bone marrow: bone marrow: no. of CD19+ B-lymphoid cells + bone marrow: bone marrow: no. of early mature CD19+CD138-IgM+ B cells + bone …
[3] = duration: 10 days, oral, diet, M, C57BL/6, serum AH50 + serum C3 + serum CH50

O=C([O-])C(F)(F)C(F)(F)C(F)(F)C(F)(F)C(F)(F)C(F)(F)C(F)(F)F.[NH4+] [Ammonium perfluorooctanoate]
0.002%: NOEL (duration: 10 days, oral, diet, M, C57BL/6, bone marrow: bone marrow cellularity + bone marrow: bone marrow: no. of Gr1+CD11b+ myeloid cells + spleen: spleen cellularity + spleen: …) | LOEL [2] | NOEL (duration: 10 days, oral, diet, M, C57BL/6, intrahepatic immune cells: all leukocytes (CD45+) + intrahepatic immune cells: B cells (CD19+) + intrahepatic immune cells: CD138 (plasma …) | LOEL (duration: 10 days, oral, diet, M, C57BL/6, intrahepatic immune cells: all leukocytes (CD45+) + intrahepatic immune cells: B cells (CD19+) + intrahepatic immune cells: cytotoxic T …) | NOEL (duration: 10 days, oral, diet, M, C57BL/6, liver: IFN-gamma levels (+Con A in vivo) + liver: IL-4 levels (+Con A in vivo) + liver: TNF-alpha levels (+Con A in vivo)) | LOEL (duration: 10 days, oral, diet, M, C57BL/6, liver: IFN-gamma levels + liver: IL-4 levels + liver: IL-6 levels + liver: IL-6 levels (+Con A in vivo) + liver: TNF-alpha levels)
0.5%: NOEL (duration: 4 days, dermal, F, BALB/c, blood serum: OVA-specific IgE + spleen: spleen B220+ cells + spleen: spleen: absolute weight + thymus: thymus: absolute weight + total serum…) | LOEL (duration: 4 days, dermal, F, BALB/c, spleen: spleen cellularity + spleen: spleen: absolute weight)
0.75%: NOEL (duration: 4 days, dermal, F, BALB/c, blood serum: OVA-specific IgE + blood serum: total serum IgE + OVA-specific airway hyperreactivity (AUC) + thymus: thymus cellularity + …) | LOEL (duration: 4 days, dermal, F, BALB/c, blood serum: OVA-specific IgE + thymus: thymus: absolute weight + total serum IgE)
0.02%: LOEL (duration: 5 days, oral, diet, M, C57BL/6, spleen: spleen: absolute weight + spleen: total splenic DNA content + thymus: thymus: absolute weight + thymus: total thymic DNA content) | LOEL (duration: 7 days, oral, diet, M, C57BL/6, blood serum: TNF-alpha levels) | LOEL (duration: 7 days, oral, diet, M, C57BL/6, body weight + spleen: lymphocyte proliferation (ConA) + spleen: lymphocyte proliferation (LPS) + spleen: spleen CD19+ cells + spleen: spleen…) | NOEL (duration: 7 days, oral, diet, M, C57BL/6, cell cycle of splenocytes: G0/G1 phase + cell cycle of splenocytes: G1/2 phase + cell cycle of splenocytes: G2/M phase) | LOEL (duration: 7 days, oral, diet, M, C57BL/6, cell cycle of splenocytes: S phase + cell cycle of thymocytes: G0/G1 phase + cell cycle of thymocytes: G1/2 phase + cell cycle of thymocytes…) | LOEL (duration: 7 days, oral, diet, M, body weight + spleen: spleen CD19+ cells + spleen: spleen CD3+ cells + spleen: spleen cellularity + thymocyte G0/1 phase + thymocyte G1/2 …) | NOEL (duration: 7 days, oral, diet, M, spleen: lymphocyte proliferation (ConA) + spleen: lymphocyte proliferation (LPS)) | LOEL (duration: 10 days, oral, diet, M, C57BL/6, IgG1 antibody-secreting cells (HRBC) + IgG1 antibody level (HRBC 1:160) + IgG1 antibody level (HRBC 1:20) + IgG1 antibody level (HRBC 1:80…) | NOEL (duration: 10 days, oral, diet, M, C57BL/6, IgG3 antibody-secreting cells (HRBC) + IgM antibody-secreting cells (HRBC) + IgM antibody level (HRBC 1:160)) | LOEL (duration: 10 days, oral, diet, M, C57BL/6, blood serum: IL-6 levels + blood serum: IL-6 levels (+LPS in vivo) + blood serum: TNF-alpha levels (+LPS in vivo) + bone marrow: IL-6 levels…) | NOEL (duration: 10 days, oral, diet, M, C57BL/6, blood serum: TNF-alpha levels + bone marrow: IL-6 levels + spleen: IL-6 levels) | LOEL (duration: 10 days, oral, diet, M, C57BL/6, bone marrow: bone marrow cellularity + bone marrow: bone marrow: no. of Gr1+CD11b+ myeloid cells + bone marrow: bone marrow: no. of immature…) | LOEL [3] | NOEL (duration: 10 days, oral, diet, M, C57BL/6, spleen: relative splenic DNA content)
1.5%: LOEL [1]
1%: NOEL [1]
200 mg/kg-day: LOEL (duration: 7 days, oral, diet, M, C57BL/6, lymphocyte proliferation in response to ConA (1 day culture) + lymphocyte proliferation in response to ConA (2 day culture) + lymphocyte …) | NOEL (duration: 7 days, oral, diet, M, C57BL/6, spleen: splenocytes in G0/1 phase + splenocytes in G1/2 phase + splenocytes in G2/M phase)
0.001%: NOEL [2]
0.01%: NOEL [3]
20 mg/kg-day: LOEL (duration: 7 days, oral, gavage, F, BALB/c, Peripheral blood phagocytosis (HEMA) + spleen: lymphocyte proliferation (ConA) + spleen: lymphocyte proliferation (LPS) + Splenic NK cell …) | NOEL (duration: 7 days, oral, gavage, F, BALB/c, spleen: spleen CD4+ cells + spleen: spleen CD49b+ cells + spleen: spleen CD8+ cells + spleen: spleen cellularity + spleen: spleen: relative …)

From EPA's ToxValDB 9.5
